The results in this text go back to ChEMBL document CHEMBL5523759, “Discovery of Novel HDAC3 Inhibitors with PD-L1 Downregulating/Degrading and Antitumor Immune Effects” (J Med Chem, 2024).

Molecules are shown by their SMILES. Activity calls are given as the source filed them. No cut-off for these calls is given here.

Usually AUC(0-inf) stands for total exposure, with the tail of the curve extrapolated. A word on the LD50: it is the dose at which mortality reaches 50%. By Tmax is commonly meant the time from dosing to the highest level. A word on the Emax: it is the maximal effect, on the per cent scale that the assay sets. What is called MRT inf is the average time that molecules of a dose stay in the body. By Cmax is commonly meant the maximum level reached in the sampled fluid or tissue. Broadly, the IC50 is the concentration at which inhibition is half-maximal.

A short description of series [1]: AUC (0 to infinity) in Sprague-Dawley rat at 20 mg/kg, po measured up to 12 hrs by LC-MS/MS analysis. Format: ADME, organism-based. The following applies: in vivo.
The target of series [2] is T1, Histone deacetylase 3 (Mus musculus) (UniProt O88895).
T1 sequence (whole entry): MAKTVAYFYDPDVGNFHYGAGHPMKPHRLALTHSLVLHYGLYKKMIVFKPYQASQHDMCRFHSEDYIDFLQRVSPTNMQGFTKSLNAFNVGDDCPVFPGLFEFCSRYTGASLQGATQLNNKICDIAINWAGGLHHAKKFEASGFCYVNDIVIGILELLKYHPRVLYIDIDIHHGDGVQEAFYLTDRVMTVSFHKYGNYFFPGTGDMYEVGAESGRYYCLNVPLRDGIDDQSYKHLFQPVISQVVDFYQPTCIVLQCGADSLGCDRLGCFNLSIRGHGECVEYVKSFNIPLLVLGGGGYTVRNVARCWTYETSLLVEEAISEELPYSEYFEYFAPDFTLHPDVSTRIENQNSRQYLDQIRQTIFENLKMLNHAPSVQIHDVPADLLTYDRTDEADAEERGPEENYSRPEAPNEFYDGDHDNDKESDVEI
The series can be described thus: Inhibition of HDAC3 in mouse B16-F10 cells assessed as decrease in PD-L1 level measured for 24 hrs by Western blot analysis. Format: cell-based. The conditions noted are these: dose 1-2 µM. In general terms: In western blotting, separated proteins are transferred to a membrane and probed.

The nature of series [3]: Metabolic stability in mouse liver microsome assessed as parent compound remaining measured at 5 mins. Format: ADME. The following applies: liver microsomes, read-out: Stability. (In general: Liver microsomes are vesicles of endoplasmic reticulum, rich in cytochrome P450 enzymes.)
The nature of series [4]: Acute toxicity in po dosed C57BL/6J mouse assessed as lethal dose administered for 14 days. Format: organism-based. The following applies: in vivo, time 14 day.
Series [5] in a line: Metabolic stability in mouse liver microsome assessed as parent compound remaining measured at 45 mins. Type of series: ADME. The conditions noted are these: liver microsomes, read-out: Stability.
A short description of series [6]: Tmax in Sprague-Dawley rat at 2 mg/kg, iv measured up to 12 hrs by LC-MS/MS analysis. The following applies: in vivo. Type of series: ADME, organism-based.
The nature of series [7]: Toxicity in C57BL/6 mouse implanted with mouse B16-F10 cells assessed as kidney damage at 25 mg/kg, po administered for 9 days by H and E staining based analysis. Type of series: organism-based. The conditions noted are these: in vivo, 216 h, time 9 day.
Series [8] has as its target Programmed cell death 1 ligand 1 (Mus musculus) (UniProt Q9EP73). The series can be described thus: Induction of PD-L1 degradation in mouse B16-F10 cells at 10 uM measured for 24 hrs by Western blot analysis relative to control. Type of series: cell-based.
Series [9] has as its system B16-F10. Description: Antitumor activity against mouse B16-F10 cells implanted in C57BL/6 mouse model assessed as […] in Ac-H3 expression in tumor at 25 mg/kg, po administered for 9 days by immunofluorescence analysis. Type of series: functional, organism-based. The conditions noted are these: time 9.0 day.
Series [10] in a line: MRT (0 to infinity) in Sprague-Dawley rat at 2 mg/kg, iv measured up to 12 hrs by LC-MS/MS analysis. Type of series: ADME, organism-based. The following applies: in vivo.
Series [11] in a line: Cmax in Sprague-Dawley rat at 20 mg/kg, po measured up to 12 hrs by LC-MS/MS analysis. Format: ADME, organism-based. The following applies: in vivo.
A short description of series [12]: AUC (0 to infinity) in Sprague-Dawley rat at 2 mg/kg, iv measured up to 12 hrs by LC-MS/MS analysis. Type of series: ADME, organism-based. The conditions noted are these: in vivo.
The target in series [13] is T1, Histone deacetylase 3 (Mus musculus). The series can be described thus: Inhibition of HDAC3 in mouse B16-F10 cells assessed as upregulation of acetylated H3 level at 1 to 2 uM measured for 24 hrs by Western blot analysis. Format: cell-based. The following applies: dose 1-2 µM.
Series [14] can be described thus: Toxicity in C57BL/6 mouse implanted with mouse B16-F10 cells assessed as body weight loss at 25 mg/kg, po administered for 9 days. Type of series: organism-based. The following applies: in vivo, 216 h, time 9 day.
Series [15] concerns the target Histone deacetylase 3 (Homo sapiens, UniProt O15379). The series can be described thus: Inhibition of human recombinant HDAC3 using Ac-Leu-Gly-Lys (Ac)-AMC as substrate preincubated with compound for 10 mins followed by substrate addition and measured after 45 mins by TECAN microtiter plate reader analysis.
Series [16] addresses T1, Histone deacetylase 3 (Mus musculus). Description: Inhibition of HDAC3 in mouse B16-F10 cells assessed as upregulation of acetylated H3 level at 2 uM measured for 24 hrs by Western blot analysis. Type of series: cell-based.

Chain of Programmed cell death 1 ligand 1 (Mus musculus) (Q9EP73 whole entry): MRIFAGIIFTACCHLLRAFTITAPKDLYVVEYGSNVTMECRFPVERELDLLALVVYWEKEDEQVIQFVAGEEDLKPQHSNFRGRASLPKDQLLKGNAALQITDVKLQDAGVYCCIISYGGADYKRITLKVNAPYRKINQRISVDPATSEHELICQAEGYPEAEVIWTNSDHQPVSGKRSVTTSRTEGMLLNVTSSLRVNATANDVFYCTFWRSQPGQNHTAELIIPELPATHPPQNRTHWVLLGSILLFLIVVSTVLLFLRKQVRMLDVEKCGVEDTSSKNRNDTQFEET
Chain of Histone deacetylase 3 (O15379 whole entry): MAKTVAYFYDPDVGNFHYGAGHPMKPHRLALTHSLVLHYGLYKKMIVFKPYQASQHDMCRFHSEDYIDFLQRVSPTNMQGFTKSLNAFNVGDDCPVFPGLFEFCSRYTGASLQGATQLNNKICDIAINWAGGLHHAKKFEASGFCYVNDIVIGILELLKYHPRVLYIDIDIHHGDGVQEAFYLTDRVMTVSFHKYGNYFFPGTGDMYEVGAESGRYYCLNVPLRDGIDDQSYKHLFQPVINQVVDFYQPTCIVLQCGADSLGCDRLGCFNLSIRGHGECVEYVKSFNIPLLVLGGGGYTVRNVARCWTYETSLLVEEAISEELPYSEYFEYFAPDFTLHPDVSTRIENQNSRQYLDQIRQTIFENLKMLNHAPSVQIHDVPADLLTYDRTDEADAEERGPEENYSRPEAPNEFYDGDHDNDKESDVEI

`CCCNNC(=O)c1ccc(CNC(=O)c2ncc(CNc3ccccc3)s2)cc1`: the area under the curve AUC(0-inf) in [1] was 3030 ng·h/mL; in series [12], 529 ng·h/mL. Besides, the inhibition result in [2] was “Dose-Dependent Effect”. In series [3], the remaining at 5 min amounted to 70.4%. The LD50 at 336 h in series [4] is more than 1000 mg/kg. In addition, in [5], the remaining at 0.75 h was 4.03%. For the same compound, the Tmax in series [6] is 8.4 min. In addition, the Activity result in series [7] and in series [14] was “Non-Toxic” throughout. Moreover, the maximum response (Emax) in series [8] was 80%. Moreover, the result in [9] was Active. This compound also came in with a mean residence time (MRT inf) in series [10] of 33 min. Also, the maximum concentration (Cmax) in [11] is 1040 ng/mL. Also, the inhibition entry in series [13] was “Active”.

With `Nc1ccccc1NC(=O)c1ccc(-c2ncc(CNc3ccccc3)s2)cc1`, in series [15], the IC50 worked out at 66 nM. In addition, the inhibition entry in series [16] is “Active”.
